Data from PubChem BioAssay (NCI).
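Five compound concentrations were applied to cells in 96-well plates for 48 hours; endpoints were derived by simple linear interpolation of the resulting dose-response curve. At the GI50, growth is halved. At the TGI there is no net growth.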

Experiments:
Test in all cases: NCI anticancer screen, dose series, 48 h
[1] = test system: CCRF-CEM leukemia
[2] = test system: RPMI-8226 leukemia
[3] = test system: CAKI-1 renal
[4] = test system: HCC-2998 colon
[5] = test system: MCF7 breast
[6] = test system: SR leukemia
[7] = test system: SK-MEL-2 melanoma
[8] = test system: UO-31 renal
[9] = test system: MDA-MB-231 breast
[10] = test system: LOX IMVI melanoma
[11] = test system: HS 578T breast
[12] = test system: ACHN renal
[13] = test system: NCI-H23 lung
[14] = test system: PC-3 prostate
[15] = test system: UACC-257 melanoma
[16] = test system: KM12 colon
[17] = test system: SK-MEL-28 melanoma
[18] = test system: MOLT-4 leukemia
[19] = test system: BT-549 breast
[20] = test system: K-562 leukemia
[21] = test system: NCI/ADR-RES ovarian
[22] = test system: HCT-15 colon
[23] = test system: EKVX NSCLC
[24] = test system: DU-145 prostate
[25] = test system: TK-10 renal
[26] = test system: COLO 205 colon
[27] = test system: NCI-H460 lung
[28] = test system: SF-295 CNS
[29] = test system: HOP-92 NSCLC
[30] = test system: A498 renal
[31] = test system: MALME-3M melanoma
[32] = test system: HCT-116 colon
[33] = test system: UACC-62 melanoma
[34] = test system: HT29 colon
[35] = test system: SNB-75 CNS
[36] = test system: SF-268 CNS
[37] = test system: SNB-19 CNS
[38] = test system: OVCAR-8 ovarian
[39] = test system: HL-60(TB) leukemia
[40] = test system: MDA-MB-468 breast
[41] = test system: OVCAR-3 ovarian
[42] = test system: 786-0 renal
[43] = test system: NCI-H226 lung
[44] = test system: HOP-62 NSCLC
[45] = test system: NCI-H522 lung
[46] = test system: M14 melanoma
[47] = test system: SN12C renal
[48] = test system: IGROV1 ovarian
[49] = test system: SW-620 colon
[50] = test system: SK-OV-3 ovarian
[51] = test system: OVCAR-5 ovarian
[52] = test system: OVCAR-4 ovarian
[53] = test system: SF-539 CNS
[54] = test system: T-47D breast
[55] = test system: MDA-MB-435
[56] = test system: RXF 393 renal

## COc1cc2cc(C(=O)N3C[C@@H](CCl)c4c3cc(OC(=O)N(C)CCSSCCN3CCOCC3)c3ccccc43)[nH]c2c(OC)c1OC
[1]
  GI50: 281 nM
  TGI: > 25000 nM
[2]
  GI50: 1000 nM
  TGI: > 25000 nM
[3]
  GI50: 137 nM
  TGI: 5730 nM
[4]
  GI50: 154 nM
  TGI: 575 nM
[5]
  GI50: 45.7 nM
  TGI: 2240 nM
[6]
  GI50: 19.7 nM
  TGI: > 25000 nM
[7]
  GI50: 210 nM
  TGI: 463 nM
[8]
  GI50: 69.2 nM
  TGI: 452 nM
[9]
  GI50: 270 nM
  TGI: 1180 nM
[10]
  GI50: 41.7 nM
  TGI: 334 nM
[11]
  GI50: 627 nM
  TGI: 1970 nM
[12]
  GI50: 19.3 nM
  TGI: 554 nM
[13]
  GI50: 33.3 nM
  TGI: 164 nM
[14]
  GI50: 214 nM
  TGI: > 25000 nM
[15]
  GI50: 642 nM
  TGI: 4320 nM
[16]
  GI50: 286 nM
  TGI: > 8850 nM
[17]
  GI50: 128 nM
  TGI: 293 nM
[18]
  GI50: 51.9 nM
  TGI: > 25000 nM
[19]
  GI50: 66.5 nM
  TGI: 330 nM
[20]
  GI50: 608 nM
  TGI: > 25000 nM
[21]
  GI50: 362 nM
  TGI: 1290 nM
[22]
  GI50: 335 nM
  TGI: 2990 nM
[23]
  GI50: 178 nM
  TGI: 844 nM
[24]
  GI50: 34.1 nM
  TGI: > 25000 nM
[25]
  GI50: 819 nM
  TGI: 3120 nM
[26]
  GI50: 1150 nM
  TGI: 2680 nM
[27]
  GI50: 26.3 nM
  TGI: > 9660 nM
[28]
  GI50: 87.2 nM
  TGI: 1470 nM
[29]
  GI50: 1130 nM
  TGI: > 18600 nM
[30]
  GI50: 272 nM
  TGI: 1330 nM
[31]
  GI50: 229 nM
  TGI: 673 nM
[32]
  GI50: 612 nM
  TGI: > 25000 nM
[33]
  GI50: 130 nM
  TGI: 482 nM
[34]
  GI50: 496 nM
  TGI: > 8760 nM
[35]
  GI50: 348 nM
  TGI: 921 nM
[36]
  GI50: 45.4 nM
  TGI: > 25000 nM
[37]
  GI50: 95 nM
  TGI: 2550 nM
[38]
  GI50: 125 nM
  TGI: 1520 nM
[39]
  GI50: 251 nM
  TGI: 4950 nM
[40]
  GI50: 133 nM
  TGI: 505 nM
[41]
  GI50: 575 nM
  TGI: 1630 nM
[42]
  GI50: 196 nM
  TGI: 1050 nM
[43]
  GI50: 29.5 nM
  TGI: 122 nM
[44]
  GI50: 29.4 nM
  TGI: 511 nM
[45]
  GI50: 1330 nM
  TGI: 7370 nM
[46]
  GI50: 69.9 nM
  TGI: 318 nM
[47]
  GI50: 69 nM
  TGI: 1920 nM
[48]
  GI50: 358 nM
  TGI: 1460 nM
[49]
  GI50: 865 nM
  TGI: > 25000 nM
[50]
  GI50: 107 nM
  TGI: 925 nM
[51]
  GI50: 228 nM
  TGI: 1060 nM
[52]
  GI50: 621 nM
  TGI: 1830 nM
[53]
  GI50: 25.7 nM
  TGI: 116 nM
[54]
  GI50: 1010 nM
  TGI: 5720 nM
[55]
  GI50: 141 nM
  TGI: 361 nM
[56]
  GI50: 28 nM
  TGI: 95.1 nM
